Experimental data as given in PubChem BioAssay AID2060896 (Molecular Pharmacology Branch, DTP, NCI, 2025).

Tested on: 941728-121-R-J1-PDC complex spheroid viability
Experiment: Anticancer human tumor 941728-121-R-J1-PDC patient-derived lung adenocarcinoma cell line growth inhibition [RAS]
Conditions: for IC50: curve of first compound; for viability, T/C: stronger effect = lower value; active means viability on the fitted dose curve at most 10% of control; inactive means the rest
In short: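 Tumour cells grown as complex spheroids with HUVEC endothelial cells and mesenchymal stem cells, treated with RAS pathway inhibitor combinations. Each agent spans half-log steps from near clinical Cmax, or 10 microM where Cmax is unknown.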

[1] = second compound 0.00316 µM, first compound 0.0316 µM
[2] = second compound 0.00316 µM, first compound 0.1 µM
[3] = second compound 0.00316 µM, first compound 0.316 µM
[4] = second compound 0.00316 µM, first compound 1 µM
[5] = second compound 0.01 µM, first compound 0.0316 µM
[6] = second compound 0.01 µM, first compound 0.1 µM
[7] = second compound 0.01 µM, first compound 0.316 µM
[8] = second compound 0.01 µM, first compound 1 µM
[9] = second compound 0.0316 µM, first compound 0.0316 µM
[10] = second compound 0.0316 µM, first compound 0.1 µM
[11] = second compound 0.0316 µM, first compound 0.316 µM
[12] = second compound 0.0316 µM, first compound 1 µM
[13] = second compound 0.1 µM, first compound 0.0316 µM
[14] = second compound 0.1 µM, first compound 0.1 µM
[15] = second compound 0.1 µM, first compound 0.316 µM
[16] = second compound 0.1 µM, first compound 1 µM
[17] = second compound 0.316 µM, first compound 0.0316 µM
[18] = second compound 0.316 µM, first compound 0.1 µM
[19] = second compound 0.316 µM, first compound 0.316 µM
[20] = second compound 0.316 µM, first compound 1 µM
[21] = second compound 1 µM, first compound 0.0316 µM
[22] = second compound 1 µM, first compound 0.1 µM
[23] = second compound 1 µM, first compound 0.316 µM
[24] = second compound 1 µM, first compound 1 µM
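Further: spheroids exposed to compounds for 7 days before readout.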
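Wherever viability, T/C is given: 100% = DMSO vehicle control viability.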

CC(=O)OC12COC1CC(O)C1(C)C(=O)C(O)C3=C(C)C(OC(=O)C(O)C(NC(=O)OC(C)(C)C)c4ccccc4)CC(O)(C(OC(=O)c4ccccc4)C21)C3(C)C (centres undefined) + C=CC(=O)N1CCN(c2nc(OCC3CCCN3C)nc3c(F)c(-c4nc(N)cc(C)c4C(F)(F)F)c(Cl)cc23)C(C)C1
< 0.0316 µM: IC50 (second compound 0.00316 µM) | IC50 (second compound 0.01 µM) | IC50 (second compound 0.0316 µM) | IC50 (second compound 0.1 µM) | IC50 (second compound 0.316 µM) | IC50 (second compound 1 µM)
inactive: viability, T/C [1] 15.8% | viability, T/C [2] 13.3% | viability, T/C [3] 13.2% | viability, T/C [4] 12.3% | viability, T/C (second compound 0.00316 µM, first compound 3.16 µM) 13.6% | viability, T/C (second compound 0.00316 µM, first compound 10 µM) 20.4% | viability, T/C [5] 15.8% | viability, T/C [6] 10.3% | viability, T/C [7] 12.7% | viability, T/C [8] 12.2% | viability, T/C (second compound 0.01 µM, first compound 3.16 µM) 12.1% | viability, T/C (second compound 0.01 µM, first compound 10 µM) 12.1% | viability, T/C [9] 14.4% | viability, T/C [10] 14.1% | viability, T/C [11] 11% | viability, T/C [12] 12.8% | viability, T/C (second compound 0.0316 µM, first compound 3.16 µM) 13.1% | viability, T/C (second compound 0.0316 µM, first compound 10 µM) 12.2% | viability, T/C [13] 14.1% | viability, T/C [14] 15.6% | viability, T/C [15] 12% | viability, T/C [16] 13.8% | viability, T/C (second compound 0.1 µM, first compound 3.16 µM) 13.8% | viability, T/C (second compound 0.1 µM, first compound 10 µM) 12.6% | viability, T/C [17] 13.5% | viability, T/C [18] 13% | viability, T/C [19] 14.1% | viability, T/C [20] 13.8% | viability, T/C (second compound 0.316 µM, first compound 3.16 µM) 13.1% | viability, T/C (second compound 0.316 µM, first compound 10 µM) 16.2% | viability, T/C [21] 14.7% | viability, T/C [22] 13.5% | viability, T/C [23] 12.6% | viability, T/C [24] 14.6% | viability, T/C (second compound 1 µM, first compound 3.16 µM) 14% | viability, T/C (second compound 1 µM, first compound 10 µM) 14.5%

Nc1ccn(C2OC(CO)C(O)C2(F)F)c(=O)n1 (centres undefined) + C=CC(=O)N1CCN(c2nc(OCC3CCCN3C)nc3c(F)c(-c4nc(N)cc(C)c4C(F)(F)F)c(Cl)cc23)C(C)C1
inactive: viability, T/C (second compound 0.00316 µM, first compound 0.00316 µM) 17.8% | viability, T/C (second compound 0.00316 µM, first compound 0.01 µM) 14.8% | viability, T/C [1] 15.2% | viability, T/C [2] 14% | viability, T/C [3] 15.9% | viability, T/C [4] 15.6% | viability, T/C (second compound 0.01 µM, first compound 0.00316 µM) 17.7% | viability, T/C (second compound 0.01 µM, first compound 0.01 µM) 14.7% | viability, T/C [5] 16.3% | viability, T/C [6] 16.2% | viability, T/C [7] 14.5% | viability, T/C [8] 13.3% | viability, T/C (second compound 0.0316 µM, first compound 0.00316 µM) 14.9% | viability, T/C (second compound 0.0316 µM, first compound 0.01 µM) 15.6% | viability, T/C [9] 15.7% | viability, T/C [10] 13.3% | viability, T/C [11] 14.9% | viability, T/C [12] 15.2% | viability, T/C (second compound 0.1 µM, first compound 0.00316 µM) 16.9% | viability, T/C (second compound 0.1 µM, first compound 0.01 µM) 13.9% | viability, T/C [13] 15.4% | viability, T/C [14] 14.1% | viability, T/C [15] 12.1% | viability, T/C [16] 12.6% | viability, T/C (second compound 0.316 µM, first compound 0.00316 µM) 16.4% | viability, T/C (second compound 0.316 µM, first compound 0.01 µM) 16.1% | viability, T/C [17] 15.9% | viability, T/C [18] 14.3% | viability, T/C [19] 15.8% | viability, T/C [20] 13.8% | viability, T/C (second compound 1 µM, first compound 0.00316 µM) 18.9% | viability, T/C (second compound 1 µM, first compound 0.01 µM) 15.8% | viability, T/C [21] 15.8% | viability, T/C [22] 16.6% | viability, T/C [23] 14% | viability, T/C [24] 12.6%
< 0.00316 µM: IC50 (second compound 0.00316 µM) | IC50 (second compound 0.01 µM) | IC50 (second compound 0.0316 µM) | IC50 (second compound 0.1 µM) | IC50 (second compound 0.316 µM) | IC50 (second compound 1 µM)
